# Results as given in publication PMC11547840, “The Intestinal Barrier Protective Effect of Indole Aldehyde Derivatives on Acute Toxoplasma gondii Infection” (Molecules, 2024).
# What was measured:
# [1] = test system: IEC-6 cells; test: MTT cytotoxicity assay in IEC-6 cells; format: cell-based; settings: MTT; concentration required to reduce IEC-6 cell growth by 50%; 24 h treatment; read-out: IC50 in IEC-6 Cells
# Procedure: (§1) Anti-T. gondii activity and cytotoxicity of indole derivatives in vitro were evaluated by MTT assay (Solarbio, Beijing, China) using a slightly modified version of the procedure of Shang et al.. IEC-6 cells were seeded onto the 96-well plates (2 × 10^3/well) for 24 h to obtain the full monolayer, and then the host cells were infected with T. gondii (parasite: cell = 3:1) in complete medium. After 24 h, cells were washed to remove any extra parasites and then incubated with different concentrations (20, 200, 500 and 1000 μm) of […]. […] After 24 h of treatment, MTT solution was added directly to the culture wells and then incubated for 4 h at 37 °C. The optical absorbance was measured at a wavelength of 548 nm using a microplate reader (SpectraMax M2, Molecular Devices, Sunnyvale, CA, USA). Giemsa staining was used to observe the changes in cell morphology and the proliferation of T. gondii-infected cells. IEC-6 (1 × 10^5 cells/well) was inoculated into 24-well plates containing round coverslip, and after the cells were attached to the wall, T. gondii (3 × 10^5 cells/well) was added to infect the cells for 3 h. After the culture medium was discarded, PBS was added to remove the uninvaded tachyzoites. […] After discarding the supernatant, the cells were washed with PBS and completely aspirated, and then fixed by adding 0.5 mL of methanol for 3 min. Giemsa staining solution was added and shaken slightly to make the staining uniform. Coverslips were rinsed with distilled water to replace the staining solution, and finally, the slices were sealed with neutral gum and air-dried.
# [2] = test system: T. gondii; test: MTT anti-T. gondii activity in T. gondii-infected IEC-6 cells; format: cell-based, Toxoplasma gondii; settings: MTT; concentration required to reduce T. gondii-infected IEC-6 cell growth by 50%; 24 h treatment; read-out: IC50 in T. gondii
# Procedure: as §1
# [3] = test system: T. gondii; test: Giemsa staining: cell infection rate and intracellular tachyzoites in IEC-6 cells; format: cell-based, Toxoplasma gondii; settings: IEC-6 cells infected 3 h, drug 12 h at the IC50 value of the cells
# Procedure: as §1
# [4] = test system: T. gondii; test: In vivo anti-T. gondii activity, peritoneal tachyzoite count by Trypan Blue; set-up: species or system Toxoplasma gondii; settings: peritoneal cavity of KM female mice, i.p. 2 × 10^3 tachyzoites; 100 mg/kg oral once a day for 6 days; Toxo 12.28 ± 0.39
# Description: (§2) For the in vivo study, KM female mice were divided into groups consisting of six animals each and then intraperitoneally injected with 2 × 10^3 tachyzoites. […] On the last day, heart blood samples were collected after anesthesia to separate the serum, and after mice were sacrificed by cervical dislocation, mice were dissected to obtain organs and tissues. The tachyzoites were harvested from mice peritoneal cavities to determine the level of tachyzoite proliferation. The peritoneal fluid was collected twice; the first time, it was centrifuged at 500 rpm for 10 min, then the supernatant was centrifuged at 2500 rpm for 20 min, discarded, and the worm precipitate was collected at the bottom, and mixed with an appropriate amount of physiological saline. A total of 10 μL of T. gondii suspension was mixed with 10 μL of 4% Trypan blue staining solution in a 1.5 mL centrifuge tube.
# [5] = Small intestine histology and pathology scoring of T. gondii-infected mice; format: in vivo; settings: 100 mg/kg oral once a day for 6 days
# Description: as §2
# The histology research includes apparent pathological change score, H&E staining and histopathological scores of tissue, as shown in Table 4 and Table 5. In detail, the obtained small intestine tissues were fixed in formalin solution and embedded in paraffin wax after gradual dehydration with different concentrations of ethanol. The paraffin fast was sectioned to a thickness of 5 μm, rehydrated and stained with hematoxylin and eosin, respectively, and finally permeabilized with xylene and sealed with neutral gum. A light microscope was used to observe and collect pictures, and the degree of damage to the small intestinal tissues was assessed according to Chiu’s six-grade scale.
# [6] = test system: small intestine of mice with T. gondii infection; test: Small intestine and serum biochemical parameters (GSH, MDA, NO, DAO) of T. gondii-infected mice; format: in vivo; settings: 100 mg/kg oral once a day for 6 days
# Description: as §2
# The GSH was measured according to the method in [58]. The intestine homogenate was mixed with half volume trichloroacetic acid (20%, w/v) and centrifuged at 4000 rpm for 10 min. Then, phosphate buffer (phosphate 0.3 mol/L, pH 7.5) and 5,5-dithio-bis-(2-nitrobenzoic acid) (0.04%, w/v) were added to the separated supernatant and mixed thoroughly. After 5 min at room temperature, the absorbance was measured at 412 nm.
# MDA was measured by the standard method with minor modifications. The small intestine homogenate supernatant was mixed with thiobarbituric acid (0.5%, w/v) and heated in boiling water bath for 1 h, then cooled quickly and centrifuged at 6000 rpm for 10 min; the absorbance of pink colored supernatant was measured at 532 nm. Tetraethoxypropane replaced the intestine homogenate in the standard sample.
# The Greiss method was used to determine the NO content in small intestine tissues and cells. The above small intestine tissue homogenate or IEC-6 cell supernatant was centrifuged at 4 °C and 1500 rpm for 15 min, and the absorbance was measured at 540 nm by adding equal amounts of Griess A and B reagents to the supernatant. The standard used in the NO standard curve was sodium nitrite, and the NO content in the samples was calculated by substituting the absorbance values of the samples into the regression equation of the standard curve.
# The DAO evaluation experimental method of Xin Y et al. was adopted, in which mouse heart blood was taken from a 1.5 mL centrifuge tube and centrifuged at 4 °C and 3000× g for 10 min, and the upper layer of serum was taken for measurement. Another 1.5 mL tube was taken and 600 μL of phosphate buffer, 20 μL of horseradish peroxidase, 20 μL of dianisidine dihydrochloride hydrochloride, and 20 μL of 1,5-pentanediamine hydrochloride were added. After that, 100 μL of serum samples to be tested was added, mixed well and heated at 37 °C for 18 h. The absorbance was measured at 436 nm. […]. A total of 100 μL of distilled water was used in the blank tube instead of serum, and the standard used in the standard curve was diamine oxidase. The absorbance value of the experimental samples was substituted into the regression equation of the standard curve to calculate the content of DAO in the serum samples.
# [7] = test system: mice with T. gondii infection; test: Survival rate of mice with T. gondii infection; format: in vivo; settings: acute infection; Toxo group died from day seven
# Procedure: All data were expressed as mean ± standard deviation (S.D.) in triplicate. Statistical analyses and graphs were performed using SPSS 16.0 software (SPSS Inc., Chicago, IL, USA) and GraphPad Prism 5.0 (GraphPad Software Inc., San Diego, CA, USA). The method of Kaplan and Meier was used to compare the survival rates of the studied groups. A value of p < 0.05 was considered statistically significant.
substance,measurement,setting,value
"Spiramycin [Spy, reference compound]",IC50,[1],246 ± 5.9 µM
same,IC50,[2],219 ± 6 µM
same,cell infection rate,[3]; Toxo group 49.2%,27.7%
same,number of intracellular tachyzoites,[3]; Toxo group 254,173
same,Number of Tachyzoites,[4],9.22 ± 1.73 ×10^6
same,"intestinal barrier damage induced by T. gondii infection (histology, H&E)",[5],showed no abnormalities in the small intestinal tissues
same,MDA level in small intestine tissue,[6],effective inhibition of the MDA increase
same,survival of mice with T. gondii infection,[7],extended the survival time
